In patent publication US20110245171A1, “REHYDRATION COMPOSITIONS COMPRISING EPIDERMAL GROWTH FACTOR (EGF)” (priority 2004, published 2011):

Key:
K88 positive E. coli = assay: Enteropathogenic E. coli infection in piglets, oral EGF; assay type: in vivo
Description: An enteropathogenic Escherichia coli isolate obtained from Veterinary Pathology Laboratories (VPL), Edmonton, Alberta was utilized in these experiments. This strain was originally isolated from a piglet with diarrhea and is positive for Stb, Lt, and K88 (F4). This strain is referred to as K88 positive E. coli. Enteropathogenic E. coli infections produce primarily a malabsorptive diarrhea, although there is a smaller secretory component.
Bacteria were grown in LB™ broth (Difco Laboratories, Detroit, Mich.) and frozen on Microbank™ porous beads (Pro-Labs Diagnostics, Richmond Hill, ON) at −70° C. For each inoculum preparation, one bead was thawed and incubated in 20 ml sterile LB™ broth for 5 h at 37° C., 200 rpm. Then, the 20 ml starter culture was placed in 980 ml LB™ broth and incubated at 37° C. for 15 hours, 200 rpm. LB™ broth was aliquoted in 18 sterile polystyrene 50 ml tubes (Falcon), centrifuged at 3000 rpm (floor Sorval) for 10 minutes, and all pellets pooled and resuspended in 50 ml 10% […]-sterile PBS.
Inoculum: Piglets received late log phase 1×10^10 (counted by spectrophotometry, 600 nm, A=1.9) live K88 positive E. coli. Bacterial inoculum was delivered in 10% NaHCO3/sterile PBS (5 ml), followed by lactate Ringer's solution (5 ml). The inoculum (10 ml) was delivered via a 40 cm orogastric intubation tube connected to a 20 cc syringe. Total bacterial counts in inoculum were calculated via serial dilutions plated onto LB™ agar and incubated overnight at 37° C., 5% CO2.
A pregnant sow was purchased from a local commercial supplier (Doug Hall, Airdrie, AB) approximately one week prior to due-date. The sow was housed at the University of Calgary farm in a farrowing pen. The sow was given free access to water and pig feed (Doug Hall, Airdrie, AB). Two-day old piglets were weight ranked and randomly assigned to each experimental group (see below), and treatment was initiated that day (Day-1). Inoculation with live K88 positive E. coli was carried out the following day (Day 0). […]

[1] = tested on: pathogenic strains of Escherichia coli; conditions: in vitro, literature; cited from earlier work
Cryptosporidium parvum = conditions: in vitro, literature; cited from earlier work
Salmonella typhimurium = conditions: in vitro, literature; cited from earlier work
giardiasis = conditions: compared to untreated animals, literature; cited from earlier work
[2] = tested on: jejunal nutrient transport; conditions: cited from earlier work
[3] = tested on: piglets with spontaneous neonatal diarrhea; assay: Spontaneous neonatal diarrhea in piglets, oral EGF; assay type: in vivo
From the text: A pregnant sow was purchased from a local commercial supplier (Doug Hall, Airdrie, AB) approximately one week prior to due-date. The sow was housed at the University of Calgary farm in a farrowing pen. The sow was given free access to water and pig feed (Doug Hall, Airdrie, AB). Two-day old piglets were weight ranked and randomly assigned to each experimental group (see below), and treatment was initiated that day (Day 0) and animals assessed 24 hr later. […] Piglets with their sow were housed separately in contained animal facilities for the duration of the experiment at the University of Calgary farm. Housing was at 20° C., with approximate 8:16 h photoperiods.
Piglets were assigned to one of the following experimental groups: 1) untreated animals gavaged orally with 5 mL sterile PBS daily starting on Day 0, and 2) EGF-treated, gavaged orally with rhEGF in 5 mL sterile PBS at a concentration of 100 μg/kg body weight daily starting on Day 0.
The study was terminated on Day 1. A total of 10 piglets were studied, 5 were given EGF, and 5 received vehicle (untreated).
Piglets were checked daily for weight gain, production of diarrhea, and overall clinical condition (alertness, body posture, condition). In addition, daily fecal scoring was carried out twice daily (9:00 am, and 3:00 pm) as follows: 0=solid, formed stools, 1=soft stools with no perineal soiling, 2=non-bloody diarrhea with perineal soiling, 3=bloody diarrhea with perineal soiling.
All morning observations were performed between 7:00 am and 12:00 pm to avoid diurnal variations. One additional fecal scoring was carried out at 3:00 pm.

[4] = tested on: jejunal tissue from rabbits infected with attaching-effacing E. coli (RDEC-1); assay: Jejunal 3-O-methyl glucose transport in Ussing chambers; design: species or system rabbit
Description: Rabbits infected with attaching-effacing E. coli (RDEC-1) were used (20). Briefly, experimental rabbits (400-600 g) were orally inoculated with 5×10^7 live E. coli in 1 mL 10% sodium bicarbonate. Controls received sodium bicarbonate only. Animals were housed individually in a level B containment room, fed commercial feed and given water ad libitum. Ten days post-infection, all animals were killed with an intra-peritoneal overdose of sodium pentabarbitone following anesthesia with halothane. A 20-cm segment of jejunum beginning 5 cm distal to the ligament of Treitz was then removed and rinsed with ice-cold Kreb's buffer. Both longitudinal and circular muscle layers were stripped from the underlying mucosa and four adjacent pieces of jejunal tissue mounted under short-circuited conditions in Ussing chambers. Both mucosal and serosal surfaces were bathed in 10 ml of oxygenated Kreb's buffer with 10 mM glucose added to the serosal surface to provide metabolic energy to the tissue, 10 mM mannitol added to the mucosal surface to osmotically balance the glucose solution, and 20 mM 3-O-methyl glucose added to both surfaces. Immediately after mounting, 10 μCi 3-O-methyl[^3H]glucose was added to either the serosal or mucosal surface and allowed to equilibrate for 20 min. 3-O-methyl glucose is a non-metabolized glucose analog. Unidirectional mucosal to serosal (Jms) and serosal to mucosal (Jsm) fluxes were then determined by measuring 3 consecutive 5 min flux intervals and an overall 15 min flux interval before and after the addition of 100 ng/ml human recombinant epidermal growth factor (rhEGF) (Austral Biologicals, San Ramon, Calif.) or vehicle to the mucosal reservoir. Net flux (Jnet) was calculated by subtracting the serosal to mucosal flux, Jsm, from the mucosal to serosal flux, Jms. Clinical symptoms were monitored including fecal shedding of the bacterium.

bacteria and protozoa = conditions: literature; cited from earlier work
enteropathogenic E. coli = conditions: literature; cited from earlier work
C. parvum = conditions: literature; cited from earlier work
[5] = infected tissue treated with EGF compared to controls
[6] = infected tissue, 10 days post-infection, 100 ng/ml rhEGF on mucosal surface

Substance: EGF: 53-amino acid human epidermal growth factor of SEQ ID NO: 1; recombinant human EGF used in the experiments
- weight gain (K88 positive E. coli; EGF-treated compared to untreated, over the course of the study): did not differ
- acceleration of return to normal fecal consistency (K88 positive E. coli; compared to untreated animals (day 3 instead of day 4)): one day
- day by which fecal scores returned to normal (fecal score of 0 in all animals) (K88 positive E. coli; rhEGF 100 μg/kg oral gavage daily from Day -1, infected Day 0, untreated: Day 4): ≤ 3 days
- epithelial bacterial translocation and invasion [1]: inhibit
- epithelial colonization (Cryptosporidium parvum): reduce
- epithelial bacterial translocation and invasion (Salmonella typhimurium): inhibit
- intestinal function (giardiasis): enhanced
- trophozoite colonization (giardiasis): inhibited
- SGLT1 content in the microsomal fraction [2]: decrease
- enterocyte glucose transport [2]: increase
- defect in glucose transport ([2]; following administration of octreotide, literature): reverse
- BBMV SGLT1 content ([2]; literature): significant increase
- amino acid transport ([2]; literature): rapidly increases
- brush border (apical) surface area ([2]; literature): increase
- glucose transport ([2]; literature): rapidly increases
- ileal electroneutral NaCl absorption and brush-border Na+/H+ exchange ([2]; literature): increase
- jejunal glutamine, alanine galactose and glycine transport ([2]; literature): increase
- Vmax for glucose uptake into brush border membrane vesicles (BBMV) ([2]; mucosal EGF, literature): increased
- Vmax for proline uptake into brush border membrane vesicles (BBMV) ([2]; mucosal EGF, literature): increased
- fecal scores ([3]; Day 1, one day after initiation of treatment, rhEGF 100 μg/kg oral, compared with vehicle): significantly (P<0.05) reduced
- animals that had died ([3]; Day 1, 5 piglets given EGF, 2 untreated died): 1
- weight gain ([3]; EGF compared to untreated): did not differ
- mucosal to serosal 3-O-methyl glucose transport [4, 5]: did not differ
- net 3-O-methyl glucose transport [4, 5]: did not differ
- mucosal to serosal flux of 3-O-methyl glucose [4, 6]: significantly increased
- net flux of 3-O-methyl glucose [4, 6]: significantly increased
- anti-protozoal effect (bacteria and protozoa): no direct
- bactericidal effect (bacteria and protozoa): no direct
- bacterial colonization (enteropathogenic E. coli): significantly inhibited
- diarrhea and reduced weight gain associated with the disease (enteropathogenic E. coli): prevented
- epithelial damage (enteropathogenic E. coli): reduced
- fecal oocyte passage (C. parvum): decreased

Substance: TGFα: related peptide that binds to the EGF receptor [reference compound]
- brush border (apical) surface area ([2]; literature): had no effect
- glucose transport ([2]; literature): had no effect
- small intestinal absorption ([2]; some studies, literature): increase
